Data as given in publication doi:10.1101/2025.01.13.632836v7 (biorxiv, 2026).

Molecular target: hERG potassium channel (Homo sapiens, UniProt Q12809)
Experiment: fluorescence polarization, fluorescent tracer displacement
Assay type: binding

Chain of hERG potassium channel (Q12809 whole entry): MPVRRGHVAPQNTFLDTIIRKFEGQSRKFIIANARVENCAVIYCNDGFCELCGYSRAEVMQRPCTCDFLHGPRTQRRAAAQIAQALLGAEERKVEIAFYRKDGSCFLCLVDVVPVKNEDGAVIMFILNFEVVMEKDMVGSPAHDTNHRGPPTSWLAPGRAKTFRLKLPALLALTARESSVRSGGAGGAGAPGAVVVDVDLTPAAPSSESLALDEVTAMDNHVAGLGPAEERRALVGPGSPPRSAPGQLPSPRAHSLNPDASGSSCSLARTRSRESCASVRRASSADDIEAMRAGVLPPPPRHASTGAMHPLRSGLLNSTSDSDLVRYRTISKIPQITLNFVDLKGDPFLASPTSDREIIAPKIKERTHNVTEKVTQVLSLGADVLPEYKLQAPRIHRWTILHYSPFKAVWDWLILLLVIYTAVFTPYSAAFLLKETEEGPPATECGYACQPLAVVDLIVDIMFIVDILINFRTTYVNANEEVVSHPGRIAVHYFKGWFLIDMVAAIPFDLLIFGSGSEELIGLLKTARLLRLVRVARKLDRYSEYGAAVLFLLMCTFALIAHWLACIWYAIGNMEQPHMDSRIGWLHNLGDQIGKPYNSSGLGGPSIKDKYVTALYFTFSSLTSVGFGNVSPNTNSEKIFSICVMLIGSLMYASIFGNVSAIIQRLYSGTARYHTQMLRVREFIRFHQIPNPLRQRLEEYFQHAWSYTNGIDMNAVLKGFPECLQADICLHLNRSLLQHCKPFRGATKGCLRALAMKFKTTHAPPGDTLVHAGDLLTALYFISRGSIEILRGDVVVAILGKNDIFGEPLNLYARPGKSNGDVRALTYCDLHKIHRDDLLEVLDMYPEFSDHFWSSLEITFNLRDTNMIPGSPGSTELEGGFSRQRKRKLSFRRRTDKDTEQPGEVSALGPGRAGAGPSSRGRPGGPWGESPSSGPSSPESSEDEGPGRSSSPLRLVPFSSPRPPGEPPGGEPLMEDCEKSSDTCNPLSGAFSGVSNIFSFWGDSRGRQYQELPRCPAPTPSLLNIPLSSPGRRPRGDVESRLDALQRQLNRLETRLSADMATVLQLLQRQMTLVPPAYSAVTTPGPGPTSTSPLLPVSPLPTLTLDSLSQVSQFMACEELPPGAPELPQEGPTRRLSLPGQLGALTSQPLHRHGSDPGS

Cc1c(-c2ccc(O)cc2)n(Cc2ccc(OCCN3CCCCC3)cc2)c2ccc(O)cc12 [MDL-001]
IC50: 13 µM
